Laboratory results taken from patent publication US20130102009A1, “SIRTUIN ACTIVATORS AND ACTIVATION ASSAYS” (priority 2010, published 2013).
Counter-ions that a name gives are not always drawn.

Tests used:
SIRT1 = target: T1, SIRT1 (Homo sapiens, UniProt Q96EB6); assay: Mass spectrometry based SIRT1 activation assay (TAMRA/5TMR-labeled 20mer peptide); assay type: biochemical; conditions: for Emax: 25 min, percent maximum fold activation of SIRT1, read-out: % FOLD ACT.; for EC1.5 uM: concentration that results in 150% activation of SIRT1
T1 sequence (Q96EB6 1-747): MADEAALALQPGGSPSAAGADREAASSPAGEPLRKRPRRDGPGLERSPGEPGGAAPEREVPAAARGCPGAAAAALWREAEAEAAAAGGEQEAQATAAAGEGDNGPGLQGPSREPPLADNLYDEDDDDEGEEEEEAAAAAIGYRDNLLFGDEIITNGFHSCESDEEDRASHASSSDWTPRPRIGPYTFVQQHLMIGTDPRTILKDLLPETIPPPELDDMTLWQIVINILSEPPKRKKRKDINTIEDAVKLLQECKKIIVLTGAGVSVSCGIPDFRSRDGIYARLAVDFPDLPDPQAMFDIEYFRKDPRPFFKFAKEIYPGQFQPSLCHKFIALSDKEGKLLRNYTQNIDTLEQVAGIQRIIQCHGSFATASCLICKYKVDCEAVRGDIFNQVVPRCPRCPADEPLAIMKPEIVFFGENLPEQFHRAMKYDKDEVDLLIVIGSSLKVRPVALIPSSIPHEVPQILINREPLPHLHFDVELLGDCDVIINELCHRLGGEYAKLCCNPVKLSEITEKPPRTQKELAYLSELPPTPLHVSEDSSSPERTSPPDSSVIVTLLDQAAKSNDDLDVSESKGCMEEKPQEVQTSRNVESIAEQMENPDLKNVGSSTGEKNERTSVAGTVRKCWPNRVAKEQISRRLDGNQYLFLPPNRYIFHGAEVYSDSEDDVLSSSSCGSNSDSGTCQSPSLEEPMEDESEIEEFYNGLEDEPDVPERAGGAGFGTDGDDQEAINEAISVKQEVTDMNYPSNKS
From the text: A mass spectrometry based assay was used to identify modulators of SIRTI activity. The mass spectrometry based assay utilizes a peptide having 20 amino acid residues as follows: Ac-EE-K(biotin)-GQSTSSHSK(Ac)NleSTEG-K(5TMR)-EE-NH2 (SEQ ID NO: 1) wherein K(Ac) is an acetylated lysine residue and Nle is a norleucine. The peptide is labeled with the fluorophore 5TMR (excitation 540 nrnIemission 580 nm) at the C-terminus. The sequence of the peptide substrate is based on p53 with several modifications. In addition, the methionine residue naturally present in the sequence was replaced with the norleucine because the methionine may be susceptible to oxidation during synthesis and purification.
The mass spectrometry assay is conducted as follows: 0.5 J-1M peptide substrate and 120 μM βNAD^+ is incubated with 10 nM SIRT1 for 25 minutes at 25° C. in a reaction buffer (50 mM Tris-acetate pH 8, 137 mM NaCl, 2.7 mM KCl, 1 mM MgClz, 5 mM DTT, 0.05% BSA). Test compounds may be added to the reaction as described above. The SirTI gene is cloned into a T7-promoter containing vector and transformed into BL21 (DE3). After the 25 minute incubation with SIRT1, 10 μL of 10% formic acid is added to stop the reaction. Reactions are sealed and frozen for later mass spec analysis. Determination of the mass of the substrate peptide allows for precise determination of the degree of acetylation (i.e. starting material) as compared to deacetylated peptide (product).
A control for inhibition of sirtuin activity is conducted by adding 1 μL of 500 mM nicotinamide as a negative control at the start of the reaction (e.g., permits determination of maximum sirtuin inhibition). A control for activation of sirtuin activity is conducted using 10 nM of sirtuin protein, with 1 μL of DMSO in place of compound, to determine the amount of deacetylation of the substrate at a given timepoint within the linear range of the assay. This timepoint is the same as that used for test compounds and, within the linear range, the endpoint represents a change in velocity.
For the above assay, SIRTI protein was expressed and purified as follows. The SirT1 gene was cloned into a T7-promoter containing vector and transformed into BL21(DE3). The protein was expressed by induction with 1 mM IPTG as an N-terminal His-tag fusion protein at 18° C. overnight and harvested at 30,000×g. Cells were lysed with lysozyme in lysis buffer (50 mM Tris-HCl, 2 mM Tris[2-carboxyethyl]phosphine (TCEP), 10 μM ZnCl2, 200 mM NaCl) and further treated with sonication for 10 min for complete lysis. The protein was purified over a Ni-NTA column (Amersham) and fractions containing pure protein were pooled, concentrated and run over a sizing column (Sephadex S200 26/60 global). The peak containing soluble protein was collected and run on an Ion-exchange column (MonoQ). Gradient elution (200 mM-500 mM NaCl) yielded pure 20 protein. This protein was concentrated and dialyzed against dialysis buffer (20 mM TrisHCl, 2 mM TCEP) overnight. The protein was aliquoted and frozen at −80° C. until further use.
Sirtuin modulating compounds that activated SIRT1 were identified using the assay described above and are shown below in Table 4. The EC1.5 values represent the concentration of test compounds that result in 150% activation of SIRT1. The EC1.5 values for the activating compounds are represented by A (EC1.5≦1 μM), B (EC1.5>1 μM). The percent maximum fold activation is represented by A (Fold activation ≧200%) or B (Fold Activation <200%).

[1] = target: Ac-Arg-His-Lys-Lys^Ac-Phe-NH2; assay: ITC binding of STACs to Ac-Arg-His-Lys-Lys^Ac-X, X=PheNH2; conditions: 10% DMSO for SRT1720, SRT2183 and 10, no cosolvent for SRT1460
Method: (§1) ITC experiments were performed using either a VP-ITC system or iTC200 system (MicroCal) at 26° C. in a buffer composed of 137 mM NaCl, 2.7 mM KCl, 1 mM MgCl2, 2 mM TCEP, 5% (v/v) glycerol and 50 mM HEPES-NaOH, pH 7.3. SIRT1(183-664) was purified and dialyzed against the buffer, centrifuged, and degassed before the experiment. The peptide and compounds were dissolved in the final dialysis buffer and their pH values were adjusted to match that of the protein solution. […] To characterize this interaction using the iTC200 system, 1 mM TAMRA-peptide was injected in 20 aliquots of 2 μL, (except the first injection, which was 0.5 μL) into a 0.202 mL sample cell containing 100 μM STAC. For STACs with poor solubility, the concentrations were adjusted accordingly. […] In all cases, data was corrected for the heat of dilution and fitted using a nonlinear least-squares routine using a single-site binding model with Origin for ITC v7.0383 (Microcal) with the stoichiometry (n), the enthalpy of the reaction (ΔH) and the association constant (Ka) calculated. Table 2 summarizes Kd values for the binding of STACs to […]. Note that except for SRT1460, the solubility of the compounds required that these ITC experiments be done in solutions containing 10% DMSO.

[2] = target: Ac-Arg-His-Lys-Lys^Ac-Trp-NH2; assay: ITC binding of STACs to Ac-Arg-His-Lys-Lys^Ac-X, X=TrpNH2; conditions: 10% DMSO for SRT1720, SRT2183 and 10, no cosolvent for SRT1460
Method: as §1

Compound	Emax (SIRT1)	EC1.5 uM (SIRT1)	Kd [1]	Kd for binding to Ac-Arg-His-Lys-Lys^Ac-X, X=PheNH2 [1]	Kd [2]	Kd for binding to Ac-Arg-His-Lys-Lys^Ac-X, X=TrpNH2 [2]
CN(C)Cc1cnc2sc(-c3ccccc3NC(=O)c3cnc4ccccc4n3)nc2c1 [Compound 2, N-(2-(6-((dimethylamino)methyl)thiazolo[5,4-b]pyridin-2-yl)phenyl)quinoxaline-2-carboxamide]	< 200%	B (EC1.5>1 μM)				
Cc1nc(-c2cccnc2)sc1C(=O)Nc1ccccc1-c1cn2c(CN3CC4CC3CN4)csc2n1 (stereo not drawn) [Compound 4, N-(2-(3-(2,5-diazabicyclo[2.2.1]heptan-2-ylmethyl)imidazo[2,1-b]thiazol-6-yl)phenyl)-4-methyl-2-(pyridin-3-yl)thiazole-5-carboxamide]	≥ 200%	A (EC1.5≦1 μM)				
CCCCc1nc(NC2CCNCC2)cc(C(=O)Nc2ccccc2-c2nc3cc(COC4CCNCC4)cnc3s2)n1 [Compound 10, 2-butyl-6-(piperidin-4-ylamino)-N-(2-(6-((piperidin-4-yloxy)methyl)thiazolo[5,4-b]pyridin-2-yl)phenyl)pyrimidine-4-carboxamide]	≥ 200%	A (EC1.5≦1 μM)	190 µM	does bind	25 µM	binds
CN(C)CCCNc1cc(-c2nc3c(NC(=O)c4ccc(CN5CCNCC5)cc4)cccc3[nH]2)ccn1 [Compound 14, N-(2-(2-(3-(dimethylamino)propylamino)pyridin-4-yl)-1H-benzo[d]imidazol-4-yl)-4-(piperazin-1-ylmethyl)benzamide trihydrochloride]	≥ 200%	A (EC1.5≦1 μM)				
COc1cc(C(=O)Nc2ccccc2-c2cn3c(CN4CCNCC4)csc3n2)cc(OC)c1OC [SRT1460]			> 500 µM	no binding	> 500 µM	
